The text below walks through data of patent publication US20230341404A1, “TARGETING STROMA-CANCER INTERACTIONS IN CANCER” (The Regents of the University of California, priority 2022, published 2023).

Test [1] relates to KPC cells. In words: macropinocytosis and mitochondria in KPC cells on ECM from Ilomastat-treated fibroblasts. Type of test: cell-based, mouse. Conditions: ECM from Ilomastat-treated wild-type fibroblasts, LG medium, 24 h. The procedure:
FIGS. 12A-12M: Inhibition of Col I cleavage shuts down NRF2-driven macropinocytosis and mitochondrial biogenesis. FIG. 12A, MP and mitochondria in KPC cells plated on indicated ECM and incubated in LG for 24 h. Col IIB in indicated ECM preparations is shown on the right. FIG. 12B, IB of indicated proteins in above cells. FIG. 12C, MP and mitochondria in indicated KPC cells plated on R/R Col I^Δ ECM and incubated in LG for 24 h. FIG. 12D, LB of indicated proteins in 1305 cells plated on ECM produced by bacterial collagenase (CLG, 50 μg/ml) treated or untreated fibroblasts and incubated in LG medium −/+CLG for 24 h. FIG. 12E, Genes differentially expressed between KPC cells plated on indicated ECM. Light gray: replicates with low expression (z-score=−2); dark gray: replicates with high expression (z-score=+2). […] Quantitation on the right. […] Statistical significance determined by two-tailed t-test. ***P<0.001, ****P<0.0001. […]
Cells were cultured on coverslips coated with or without ECM and fixed in 4% paraformaldehyde for 10 min at room temperature or methanol for 10 min at —20° C. […] Images were captured and analysed using a TCS SPE Leica confocal microscope with Leica Application Suite AF 2.6.0.7266 software (Leica).
Macropinosomes or mitochondria were quantified by using the ‘Analyze Particles’ feature in Image J (NIH). […] Kaplan—Meier survival curves were analysed by log-rank test. […]

For test [2], the system named is KPC cells. Description: cell viability with tigecycline. The test is classed as cell-based, mouse. Conditions: parental cells on wild-type ECM versus R/R ECM or DDR1^KD cells on wild-type ECM, LG medium. The procedure: (§1) FIGS. 14A-14J: Effect of macropinocytosis and mitochondria on Col I-controlled PDAC cell growth. FIG. 14A, Bromodeoxyuridine (BrdU) incorporation into KPC cells plated on ECM mixtures produced by R/R and WT fibroblasts (R:W). Scale bars, 10 μm. FIG. 14B, FIG. 14C, Paren. and IKKα^KD KPC (FIG. 14B) or KC (FIG. 14C) cells were plated −/+ WT or R/R ECM and incubated in LG −/+ indicated reagents. Viable cells were measured after 3 days and depicted relative to untreated plastic-plated Paren. cells. (FIG. 14C). IKKα KD efficiency is shown on the right (FIG. 14B). […] Total viable cells were measured as above and are presented relative to the untreated cells. FIG. 14H, Mitochondrial ATP production calculated from FIG. 6B. […] Quantification of the SR positive area is shown on the left. […] Statistical significance determined by two-tailed t-test. […]
(§2) Cells were plated in 96-well plates coated with or without ECM at a density of 3,000 cells (MIA, 1305) or 1,500 cells (KPC or KC) per well and incubated overnight before treatment. […] Cell viability was determined with a Cell Counting Kit-8 assay (Glpbio). Optical density was read at 450 nm and analysed using a microplate reader with SoftMax 6.5 software (FilterMax F5, Molecular Devices). […]

A further test deals with 1305 cells. Description: cell viability with tigecycline. Type of test: cell-based, human. Conditions: parental cells on wild-type ECM versus R/R ECM or DDR1^KD cells on wild-type ECM, LG medium, 24 h. The procedure: as §1, §2

Regarding `CNC(=O)[C@H](Cc1c[nH]c2ccccc12)NC(=O)[C@@H](CC(=O)NO)CC(C)C` [Ilomastat], the “behaviour of ECM from treated fibroblasts (macropinocytosis, mitochondria)” value in the test on KPC cells [1] is reported as “behaved like R/R ECM”. On to `CN(C)c1cc(NC(=O)CNC(C)(C)C)c(O)c2c1C[C@H]1C[C@H]3[C@H](N(C)C)C(O)=C(C(N)=O)C(=O)[C@@]3(O)C(O)=C1C2=O` [tigecycline], for which the “sensitivity to tigecycline (viable cells)” value with KPC cells [2] and in the test with 1305 cells was “more sensitive” throughout.
